Source: patent publication US20050215555A1, “Inhibitors of 5-HT2A receptor” (priority 2003, published 2005)

Legend:
[1] = molecular target: T1, 5-HT2C (Homo sapiens, UniProt P28335); assay: FLIPR based assay, effect on 10 nM 5-HT induced Ca2+-currents; format: cell-based; conditions: functional FLIPR assays
T1 sequence (P28335 33-458): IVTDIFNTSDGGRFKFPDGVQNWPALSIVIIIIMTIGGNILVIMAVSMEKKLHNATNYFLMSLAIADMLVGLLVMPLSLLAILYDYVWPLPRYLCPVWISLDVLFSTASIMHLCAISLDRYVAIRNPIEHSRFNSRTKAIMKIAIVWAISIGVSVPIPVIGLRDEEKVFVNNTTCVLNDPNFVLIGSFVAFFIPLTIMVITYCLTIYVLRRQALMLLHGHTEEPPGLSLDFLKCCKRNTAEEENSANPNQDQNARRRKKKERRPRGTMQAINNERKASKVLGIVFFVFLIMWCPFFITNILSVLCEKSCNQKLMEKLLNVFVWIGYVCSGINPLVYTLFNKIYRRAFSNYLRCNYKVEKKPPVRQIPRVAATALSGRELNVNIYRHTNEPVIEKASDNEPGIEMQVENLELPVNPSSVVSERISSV
Method: The activity at 5-HT2C receptors was studied in a FLIPR based assay, measuring the effect of compounds on 10 nM 5-HT induced Ca^2+-currents.

[2] = molecular target: T2, 5-HT2A (Homo sapiens, UniProt P28223); assay: Radioligand displacement binding (3H-5-HT), SPA or filter binding; set-up: expressed in transfected cells; host or cells: CHO or HEK293
Method: (§1) The affinity constants of compounds were determined using recombinant human serotonin receptors stably expressed in fibroblast cell lines (CHO or HEK293), measuring the ability of the compounds to displace radio-labelled tracers using scintillation proximity assays or filter binding assays. For 5-HT1B , 5-HT2B and 5-HT2C receptor binding studies ^3H-LSD was used as radio ligand, for 5-HT2 A and 5-HT6 ^3H-5-HT was used as tracer, while the binding constant to 5-HT1A was determined using ^3H-8-OH-DPAT. The non-selective serotonin receptor antagonist mianserine was used as reference substance.
(§2) The calculation of the Ki values for the inhibitors was performed by use of Activity Base. The Ki value is calculated from IC50 using the Cheng Prushoff equation (with reversible inhibition that follows the Michaelis-Menten equation): […] [Cheng, Y. C.; Prushoff, W. H. Biochem. Pharmacol. 1973, 22, 3099-3108].

[3] = molecular target: T1, 5-HT2C; assay: Radioligand displacement binding (3H-LSD), SPA or filter binding; set-up: expressed in transfected cells; host or cells: CHO or HEK293; conditions: recombinant human receptor
Method: as §1, §2

[4] = molecular target: T3, 5-HT6 (Homo sapiens, UniProt P50406); assay: Radioligand displacement binding (3H-5-HT), SPA or filter binding; conditions: recombinant human receptor
T3 construct: expressed in transfected cells; host or cells: CHO or HEK293
Method: as §1, §2

[5] = molecular target: T4, 5-HT2B (Homo sapiens, UniProt P41595); assay: Radioligand displacement binding (3H-LSD), SPA or filter binding; conditions: recombinant human receptor
T4 construct: expressed in transfected cells; host or cells: CHO or HEK293
Method: as §1, §2

[6] = molecular target: T5, 5-HT1B (Homo sapiens, UniProt P28222); assay: as above; conditions: recombinant human receptor
T5 construct: expressed in transfected cells; host or cells: CHO or HEK293
Method: as §1, §2

[7] = molecular target: T2, 5-HT2A; assay: FLIPR functional assay (primary screening and IC50 determination), inhibition of 5-HT evoked peak response; format: cell-based; set-up: expressed in transfected cells; host or cells: CHO; conditions: CHO cells expressing 5-HT2A, 15 min pre-incubation, Ki calculated from IC50 (Cheng Prushoff)
Method: Primary screening and IC50 determination
CHO cells expressing 5-HT2A receptors seeded in 384 well plates are pre-loaded with Fluo-4AM fluorescent dye and then incubated with compound (10 μM for primary screen) for 15 min. Fluorescent intensity is recorded using a Fluorometric imaging plate reader (FLIPR384, Molecular Devices) and inhibition of the peak response evoked by 5-HT (EC70 concentration) is calculated.
IC50 determinations are performed utilizing the same finctional assay as described for primary screening (15 min antagonist compound pre-incubation), applying the compounds in the dose range of 3 nM to 10 μM.
as §2

[8] = molecular target: T6, 5-HT1A (Homo sapiens, UniProt P08908); assay: Radioligand displacement binding (3H-8-OH-DPAT), SPA or filter binding; conditions: recombinant human receptor
T6 construct: expressed in transfected cells; host or cells: CHO or HEK293
T6 sequence (P08908 1-422): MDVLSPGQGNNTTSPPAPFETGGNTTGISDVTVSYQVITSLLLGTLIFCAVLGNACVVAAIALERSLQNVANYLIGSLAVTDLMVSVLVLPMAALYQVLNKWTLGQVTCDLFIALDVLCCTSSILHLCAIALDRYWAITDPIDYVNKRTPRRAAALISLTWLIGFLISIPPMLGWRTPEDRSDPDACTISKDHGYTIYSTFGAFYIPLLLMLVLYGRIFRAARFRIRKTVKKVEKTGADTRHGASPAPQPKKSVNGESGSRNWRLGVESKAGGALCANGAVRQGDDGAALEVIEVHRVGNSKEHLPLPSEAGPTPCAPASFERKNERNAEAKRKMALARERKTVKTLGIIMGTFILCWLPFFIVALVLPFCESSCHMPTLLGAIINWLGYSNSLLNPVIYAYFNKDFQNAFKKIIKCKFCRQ
Method: as §1, §2

[9] = equilibrium displacement binding, n=3, unit inferred, read-out: Ki values for the 5-HT2A receptor subtype
[10] = recombinant human receptor, 3H-5-HT, read-out: Binding Ki (nM) 5-HT2A

T2 sequence (P28223 whole entry): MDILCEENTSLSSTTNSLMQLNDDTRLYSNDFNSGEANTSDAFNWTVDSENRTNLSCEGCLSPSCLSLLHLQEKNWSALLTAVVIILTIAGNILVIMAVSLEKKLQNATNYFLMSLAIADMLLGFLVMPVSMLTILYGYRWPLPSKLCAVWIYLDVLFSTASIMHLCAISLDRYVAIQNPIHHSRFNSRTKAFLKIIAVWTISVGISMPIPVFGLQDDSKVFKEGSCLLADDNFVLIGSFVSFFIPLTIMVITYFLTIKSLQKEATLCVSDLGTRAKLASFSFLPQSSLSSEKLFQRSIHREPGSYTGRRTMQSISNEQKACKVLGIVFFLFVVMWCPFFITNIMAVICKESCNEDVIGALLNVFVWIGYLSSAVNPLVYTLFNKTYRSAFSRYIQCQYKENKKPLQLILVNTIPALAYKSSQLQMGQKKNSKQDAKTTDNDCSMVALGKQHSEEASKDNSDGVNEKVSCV
T4 sequence (P41595 whole entry): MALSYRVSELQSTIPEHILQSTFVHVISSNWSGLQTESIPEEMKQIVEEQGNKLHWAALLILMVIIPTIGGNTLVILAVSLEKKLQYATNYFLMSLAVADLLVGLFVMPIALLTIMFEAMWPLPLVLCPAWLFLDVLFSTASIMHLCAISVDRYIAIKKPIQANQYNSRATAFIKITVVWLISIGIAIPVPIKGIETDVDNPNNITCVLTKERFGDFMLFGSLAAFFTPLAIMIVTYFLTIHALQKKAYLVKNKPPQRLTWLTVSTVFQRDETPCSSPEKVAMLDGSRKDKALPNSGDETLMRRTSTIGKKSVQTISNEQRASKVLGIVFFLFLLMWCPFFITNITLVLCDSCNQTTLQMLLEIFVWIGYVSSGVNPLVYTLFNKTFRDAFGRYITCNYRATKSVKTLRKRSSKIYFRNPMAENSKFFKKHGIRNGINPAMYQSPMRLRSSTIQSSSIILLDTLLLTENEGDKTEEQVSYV
T5 sequence (P28222 whole entry): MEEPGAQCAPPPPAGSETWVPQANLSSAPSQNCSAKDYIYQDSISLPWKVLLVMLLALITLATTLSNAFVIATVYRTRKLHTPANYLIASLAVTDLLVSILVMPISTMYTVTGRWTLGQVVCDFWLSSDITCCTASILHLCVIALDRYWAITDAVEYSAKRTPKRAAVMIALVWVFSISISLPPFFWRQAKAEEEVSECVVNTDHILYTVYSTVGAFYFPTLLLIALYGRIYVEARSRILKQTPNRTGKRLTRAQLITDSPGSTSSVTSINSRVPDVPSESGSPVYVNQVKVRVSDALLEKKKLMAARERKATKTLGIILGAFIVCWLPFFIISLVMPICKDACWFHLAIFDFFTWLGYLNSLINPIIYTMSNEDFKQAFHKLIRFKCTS
T3 sequence (P50406 whole entry): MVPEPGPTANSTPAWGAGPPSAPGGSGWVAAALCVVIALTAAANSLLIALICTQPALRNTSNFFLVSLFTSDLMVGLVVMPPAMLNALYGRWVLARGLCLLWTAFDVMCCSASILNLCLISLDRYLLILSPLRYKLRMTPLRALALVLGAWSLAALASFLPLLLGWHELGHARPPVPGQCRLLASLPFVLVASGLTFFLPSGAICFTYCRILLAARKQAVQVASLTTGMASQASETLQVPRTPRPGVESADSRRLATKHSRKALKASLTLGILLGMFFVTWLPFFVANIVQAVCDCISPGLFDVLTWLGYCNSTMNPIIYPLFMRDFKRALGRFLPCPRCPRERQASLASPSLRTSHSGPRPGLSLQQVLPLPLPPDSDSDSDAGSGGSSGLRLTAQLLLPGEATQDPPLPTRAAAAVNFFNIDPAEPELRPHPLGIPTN

Structure (SMILES)	selectivity at 5-HT2A versus the 5-HT2C receptor in terms of efficacy [1]	Ki [2, 9]	Ki [2, 10]	Ki [3]	Ki [4]	Ki [5]	Ki [6]	Ki [7]	Ki [8]
c1ccc(CCN2CCC(c3nc(-c4ccccc4)c4ccccn34)CC2)cc1 [Example 2]	highly selective	6 nM	5.9 nM	> 1000 nM	> 1000 nM	444 nM	> 1000 nM	20.6 nM	> 1000 nM
Cc1ccn2c(C3CCN(CCc4ccccc4)CC3)nc(-c3ccccc3)c2c1 [Example 4, 7-methyl-1-phenyl-3-[1-(2-phenylethyl)piperidin-4-yl]imidazo[1,5-a]pyridine]	highly selective	14 nM	13.6 nM	> 1000 nM	> 1000 nM	267 nM	> 1000 nM	8.2 nM	> 1000 nM
